Values joined by “and” are separate entries in the source; they are usually repeats but may differ in a detail not shown here. Identical values can stand only once.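 In this assay, cells in 96-well plates receive the compound at five concentrations for 48 hours. Endpoints are linearly interpolated between the surrounding concentrations. GI50 marks 50% less growth.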 Active and inactive are the calls of the source. No stated cut-off is given here; in the data, active = GI50 up to about 1.1 µM and inactive = higher.
How the values were obtained:
Test in all cases: NCI-60 cell line screen, 48 h
[1] = test system: COLO 205
[2] = test system: SK-MEL-28
[3] = test system: ACHN
[4] = test system: DLD-1
[5] = test system: SNB-78
[6] = test system: IGROV-1
[7] = test system: SK-OV-3
[8] = test system: UO-31
[9] = test system: SK-MEL-2
[10] = test system: LXFL 529
[11] = test system: K562
[12] = test system: HT-29
[13] = test system: M19-MEL
[14] = test system: HL-60
[15] = test system: A498
[16] = test system: HOP-18
[17] = test system: CAKI-1
[18] = test system: 786-0
[19] = test system: HCT-116
[20] = test system: OVCAR-8
[21] = test system: SF-268
[22] = test system: SW-620
[23] = test system: A549
[24] = test system: KM-20L2
[25] = test system: HOP-62
[26] = test system: DMS-114
[27] = test system: HCT-15
[28] = test system: RPMI-8226
[29] = test system: MOLT-4
[30] = test system: NCI-H226
[31] = test system: Malme-3M
[32] = test system: EKVX
[33] = test system: CCRF-CEM
[34] = test system: U-251
[35] = test system: SN12C
[36] = test system: UACC-62
[37] = test system: SF-295
[38] = test system: HCC 2998
[39] = test system: SNB-19
[40] = test system: OVCAR-4
[41] = test system: OVCAR-3
[42] = test system: UACC-257
[43] = test system: SK-MEL-5
[44] = test system: SNB-75
[45] = test system: NCI-H522
[46] = test system: NCI-H460
[47] = test system: KM12
[48] = test system: M14
[49] = test system: LOX IMVI
[50] = test system: RXF 393
[51] = test system: DMS-273
[52] = test system: MDA-N
[53] = test system: PC-3
[54] = test system: MDA-MB-435
[55] = test system: Hs-578T
[56] = test system: DU-145
[57] = test system: SR
[58] = test system: MDA-MB-231
[59] = test system: T47D
[60] = test system: TK-10
[61] = test system: BT-549
[62] = test system: XF498

Structure (SMILES): CCOC(=O)NC(=O)c1cn(C(CC)COC(=O)NCCCCCCNC(=O)OCC(CC)n2cc(C(=O)NC(=O)OCC)c(=O)[nH]c2=O)c(=O)[nH]c1=O (configuration not stated)
- GI50 [1]: > 100 µM (inactive)
- GI50 [2]: > 100 µM (inactive)
- GI50 [3]: > 100 µM (inactive)
- GI50 [4]: > 10 µM (inactive)
- GI50 [5]: > 100 µM (inactive)
- GI50 [6]: > 100 µM (inactive)
- GI50 [7]: > 100 µM (inactive)
- GI50 [8]: > 100 µM (inactive)
- GI50 [9]: > 100 µM (inactive)
- GI50 [10]: > 100 µM (inactive)
- GI50 [11]: > 100 µM (inactive)
- GI50 [12]: > 100 µM (inactive)
- GI50 [13]: > 100 µM (inactive)
- GI50 [14]: > 100 µM (inactive)
- GI50 [15]: > 100 µM (inactive)
- GI50 [16]: > 100 µM (inactive)
- GI50 [17]: > 100 µM (inactive)
- GI50 [18]: > 100 µM (inactive)
- GI50 [19]: > 100 µM (inactive)
- GI50 [20]: > 100 µM (inactive)
- GI50 [21]: > 100 µM (inactive)
- GI50 [22]: > 100 µM (inactive)
- GI50 [23]: > 100 µM (inactive)
- GI50 [24]: > 100 µM (inactive)
- GI50 [25]: > 100 µM (inactive)
- GI50 [26]: > 100 µM (inactive)
- GI50 [27]: > 100 µM
- GI50 [28]: > 100 µM (inactive)
- GI50 [29]: > 100 µM (inactive)
- GI50 [30]: > 100 µM (inactive)
- GI50 [31]: > 100 µM (inactive)
- GI50 [32]: > 100 µM (inactive)
- GI50 [33]: > 100 µM (inactive)
- GI50 [34]: > 100 µM (inactive)
- GI50 [35]: > 100 µM (inactive)
- GI50 [36]: > 100 µM (inactive)
- GI50 [37]: > 100 µM (inactive)
- GI50 [38]: > 100 µM (inactive)
- GI50 [39]: > 100 µM (inactive)
- GI50 [40]: > 100 µM (inactive)
- GI50 [41]: > 100 µM (inactive)
- GI50 [42]: > 100 µM (inactive)
- GI50 [43]: > 100 µM (inactive)
- GI50 [44]: > 100 µM (inactive)
- GI50 [45]: > 100 µM (inactive)
- GI50 [46]: > 100 µM (inactive)
- GI50 [47]: > 100 µM (inactive)
- GI50 [48]: > 100 µM (inactive)
- GI50 [49]: > 100 µM (inactive)
- GI50 [50]: > 100 µM (inactive)
- GI50 [51]: > 100 µM (inactive)

Structure (SMILES): Cc1cc(O)c2c(=O)c3c(O)cc(O)c4c5c(O)cc(O)c6c(=O)c7c(O)cc(C)c8c1c2c(c34)c(c78)c65 [HYPERICIN]
- GI50 [52]: > 100 µM (inactive)
- GI50 [2]: 53.1 µM (inactive)
- GI50 [3]: > 100 µM (inactive)
- GI50 [4]: 21.3 µM (inactive)
- GI50 [5]: 42.5 µM (inactive)
- GI50 [53]: > 100 µM (inactive)
- GI50 [54]: > 100 µM (inactive)
- GI50 [11]: 61.8 µM (inactive) and 33.3 µM (inactive)
- GI50 [13]: 44.2 µM (inactive)
- GI50 [55]: > 100 µM (inactive)
- GI50 [16]: 63.1 µM (inactive)
- GI50 [17]: > 100 µM (inactive)
- GI50 [18]: > 100 µM (inactive)
- GI50 [56]: > 100 µM (inactive)
- GI50 [20]: 74.3 µM (inactive)
- GI50 [21]: 54 µM (inactive)
- GI50 [22]: 51.9 µM (inactive)
- GI50 [23]: 52.6 µM (inactive)
- GI50 [24]: 21.7 µM (inactive)
- GI50 [25]: 28.3 µM (inactive)
- GI50 [31]: 61 µM (inactive)
- GI50 [32]: > 100 µM (inactive) and 62.5 µM (inactive)
- GI50 [57]: 99.8 µM (inactive)
- GI50 [35]: 60.8 µM (inactive)
- GI50 [58]: 10.1 µM (inactive)
- GI50 [59]: > 100 µM (inactive)
- GI50 [60]: > 100 µM (inactive)
- GI50 [61]: > 100 µM (inactive)
- GI50 [39]: > 100 µM (inactive)
- GI50 [62]: 71.1 µM (inactive)
- GI50 [41]: > 100 µM (inactive) and 67 µM (inactive)
- GI50 [43]: 59.8 µM (inactive)
- GI50 [47]: 54.5 µM (inactive)
- GI50 [48]: > 100 µM (inactive)
- GI50 [50]: 26.4 µM (inactive)
- GI50 [51]: 56.4 µM (inactive)
